# Source: patent US20160195530A1, “METHOD FOR ANALYSIS OF NKT CELL FUNCTION” (RIKEN, priority 2005, published 2016)
# How the values were obtained:
# [1] = test system: NKT cells in peripheral blood; assay: ELISPOT assay of IFN-γ-producing cells with α-GalCer-loaded mature DCs (autologous, allogeneic, heterologous); format: cell-based, human; conditions: α-GalCer 100 ng/ml
# Source text: In order to study whether activation of NKT cells in peripheral blood varies by DCs of different derivation, NKT cell activation in an autologous, allogeneic or heterologous system was studied by an ELISPOT assay with IFN-γ productivity as an index.
# Human DCs were obtained by purifying CD14% monocytes with magnetic beads (Miltenyi Biotec Inc. Auburn, Calif.) and cultivating them for 7 days in the presence of 500 U/ml recombinant human IL-4 and 1,000 U/ml recombinant human GM-CSF. α-GalCer (100 ng/ml) or the same amount of vehicle (DMSO, Sigma) was loaded onto DCs at the 5th day, given maturation stimuli (10 ng/ml IL-1β, 10 ng/ml TNFα, and 1 μg/ml PGE2) at the 6th day, and recovered at the 7th day.
# Bone marrow precursor cells were grown into DCs induced from mouse bone marrow in 5% FCS-containing RPMI-1640 using mouse GM-CSF. At the 6th day, α-GalCer (100 ng/ml) was added to immature bone marrow DCs, and cultivation was performed for 40 hr. For maturation of DCs, 100 ng/ml LPS was added at the 7th day, and cultivation was performed for 16 hr. Matured α-GalCer-pulsed DCs were recovered at the 8th day.
# For detection of IFN-γ-secreting cells, 96-well filtration plates (Millipore, Bedford, Mass.) were coated with mouse anti-human IFN-γ (10 μg/ml, Mabtech, Sweden). PBMCs (1×10^6) were incubated in RPMI containing 5% human AB serum or 10% calf serum (complete medium or CM; GIBCO) in either presence or absence of α-GalCer (100 ng/ml). PMA (10 μg/ml) and ionomycin were used as positive controls. […] Spot-forming cells (SFC) were quantified with a microscope. When the reactivity was not less than 10 SFC/well and not less than twice the background (without αGalCer), the assay was scored as positive. In order to compare naive NKT cell activation ability of different APCs (autologous, allogeneic and heterologous DC) in cultures, Mφ-depleted cells (1×10^6/well) were cultivated with […] α-GalCer or vehicle-loaded APCs (1×10^5/well) in CM for 16 hr. α-GalCer-dependent IFN-γ-producing cells were measured by an ELISPOT assay.
# [2] = test system: NKT cell contained in peripheral blood of a healthy subject; assay: Cocultivation of Mφ-depleted PBMC with α-GalCer-pulsed mature mouse DC, flow cytometry and intracellular staining; format: cell-based, human; conditions: healthy subjects; α-GalCer-pulsed mature mouse DCs, IL-2 100 U/ml, 9 days
# Description: At first, mouse DCs were induced from mouse bone marrow cells. Mouse bone marrow cells were cultivated in 5% FCS-containing RPMI-1640 in the presence of mouse GM-CSF under 5% CO2 at 37° C. for 5 days.
# Subsequently, immature mouse DCs were maturated. To the culture obtained as mentioned above (containing immature mouse DCs), α-GalCer (100 ng/ml) was added at the 6th day, and the culture was cultivated for 40 hr. For an acieration of the maturation, 100 ng/ml LPS was added at the 7th day, and the culture was cultivated for 16 hr. Thus obtained α-GalCer-pulsed mature mouse DCs were recovered at the 8th day.
# PBMCs were obtained by blood drawing from healthy subjects, and Mφ-depleted PBMCs were obtained by removing macrophages (Mφ) using an anti-CD14 antibody (simultaneously using a CD11c antibody as necessary) and magnetic beads.
# α-GalCer-pulsed mature mouse DCs (5×10^4 cells/ml) obtained by the above-mentioned (1) and Mφ-depleted PBMCs (5×10^5 cells/ml) obtained by the above-mentioned (2) were cultivated in 10% FCS-containing RPMI-1640 in the presence of recombinant human IL-2 (100 U/ml) under 5% CO2 at 37° C. for 9 days.
# After cultivation in accordance with the protocol of the above-mentioned (1)-(3), the number of NKT cells and the frequency of NKT cells having an cytokine production ability were measured by flow cytometry and intracellular staining. […]
# [3] = test system: human NKT cells; assay: IFN-γ ELISA after cocultivation of isolated human NKT cells with α-GalCer-pulsed autologous or heterologous DCs; format: cell-based; conditions: α-GalCer-pulsed heterologous (mouse) DCs versus autologous DCs
# Description: In order to clarify that a human NKT cell can be specifically activated by a heterologous DC, human NKT cells were isolated, cocultivated with α-GalCer-pulsed autologous or heterologous DCs, after which the culture supernatants were collected, and cytokine production was measured by the ELISA method.
# After growth of the NKT cell with α-GalCer and IL-2, the cells were sorted using FACS Vantage with anti-invariant NKT antibodies, and cocultivated with α-GalCer-pulsed heterologous or autologous DCs, after which IFN-γ was quantified by the ELISA method.
# [4] = test system: NKT cell line; assay: Antigen-specific growth of NKT cell line cocultivated with heterologous DCs; format: cell-based, human; conditions: heterologous DCs in presence of antigen, 10 days, serially diluted NKT cell line mixed with NKT cell-removed PBMCs
# Description: Mature DCs were stimulated for maturation, as well as pulsed using α-GalCer (100 ng/ml) for 48 hr in the 5th-7th days of the cultivation. 1×10^4 DCs pulsed with α-GalCer were added to the each well of 1×10^5 Mφ-depleted PBMCs in the presence of recombinant IL-2 (100 U/ml). 10-14 Days later, Va24^+ NKT cells were stained with FITC-labeled anti-Vα24 mAb, and selected using anti-FITC magnetic beads. Va24^+ NKT cells were maintained as a cell line in CM in the presence of 100 U/ml IL-2, and restimulated by PBMCs that had been irradiated in the presence of α-GalCer.
# After serial dilution of the NKT cell line that was prepared by the method described in Example 4, the diluted solutions were mixed with NKT cell-removed PBMCs, cocultivated with heterologous DCs in the presence of an antigen (α-GalCel), and the growth rates were calculated 10 days later.
compound,measurement,setting,value
"CCCCCCCCCCCCCCCCCCCCCCCCCC(=O)N[C@@H](CO[C@H]1O[C@H](CO)[C@H](O)[C@H](O)[C@H]1O)[C@H](O)[C@H](O)CCCCCCCCCCCCCC [α-GalCer, 25,35,4R-1-0(α-galactopyranosyl)-2(N-hexacosanoylamino)-1,3,4-octadecanetriol]","α-GalCer-dependent NKT cell activation (IFN-γ productivity, ELISPOT)","[1]; high frequency NKT cell-containing group (% NKT>0.05%), autologous and heterologous DCs",activation of NKT cell was confirmed
same,"α-GalCer-dependent NKT cell activation (IFN-γ productivity, ELISPOT)",[1]; low frequency NKT cell-containing group (% NKT<0.01%),NKT cell activation was not confirmed
same,"α-GalCer-dependent NKT cell activation (IFN-γ productivity, ELISPOT)",[1]; middle frequency NKT cell-containing group (0.01%<% NKT<0.05%),"activation of NKT cell was confirmed in an α-GalCer dependent manner, but the production amount was found to be decreased"
same,"cytokine production (frequency of NKT cells having cytokine production ability, IFN-γ)",[2],confirmed
same,α-GalCer-dependent growth of human NKT cells (number of NKT cells),[2],confirmed
same,"IFN-γ production (ELISA, culture supernatant)",[3],"IFN-γ production was confirmed in the heterologous system, though it was lower than in the autologous system"
same,antigen-specific growth of human NKT cells,[4],antigen-specifically grown by heterologous DCs
